Experimental data published in patent US11242334B2, “Heterocyclic compounds as kinase inhibitors, compositions comprising the heterocyclic compound, and methods of use thereof” (JS INNOPHARM (SHANGHAI) LTD, priority 2017, dated 2022).

How the values were obtained:
Colo205 cell line = assay: Colo205 cell proliferation assay (MTT assay, WST-8 readout); assay type: cell-based; conditions: Homo sapiens; IC50 values of growth inhibition in Colo 205 cells; 72 hours
How it was run: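 Growth-inhibition IC50 was derived from WST-8 absorbance at 450 nm (2 h development) after 72 h compound exposure at 37° C. Exposure used final 50 μM–0.005 μM compound in 0.5% DMSO. Colo205 cells had been plated at 5,000/well in RPMI-1640 plus 10% FBS and allowed 24 h to attach.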

human ERK2 = target: T1, human ERK2 (Homo sapiens, UniProt P28482); assay: LanthaScreen TR-FRET enzymatic assay, ERK2; conditions: IC50 values of ERK2 biochemical activity; 5 μM ATP, 400 nM ATF2-GFP substrate
T1 construct: recombinantly expressed as GST-tagged full-length protein purified from E. coli; GST; purchased Invitrogen PV3311; host or cells: E. coli
How it was run: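 IC50 values were fitted from percent of DMSO control using a 520/495 nm TR-FRET ratio with terbium anti-pATF2 (pThr71), read after an EDTA stop. The kinase reaction lasted one hour at room temperature, following 15-min compound pre-treatment. It contained 5 μM ATP, 400 nM ATF2-GFP substrate and 20 ng/ml in vitro-activated GST-ERK2.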

T1 sequence (P28482 whole entry): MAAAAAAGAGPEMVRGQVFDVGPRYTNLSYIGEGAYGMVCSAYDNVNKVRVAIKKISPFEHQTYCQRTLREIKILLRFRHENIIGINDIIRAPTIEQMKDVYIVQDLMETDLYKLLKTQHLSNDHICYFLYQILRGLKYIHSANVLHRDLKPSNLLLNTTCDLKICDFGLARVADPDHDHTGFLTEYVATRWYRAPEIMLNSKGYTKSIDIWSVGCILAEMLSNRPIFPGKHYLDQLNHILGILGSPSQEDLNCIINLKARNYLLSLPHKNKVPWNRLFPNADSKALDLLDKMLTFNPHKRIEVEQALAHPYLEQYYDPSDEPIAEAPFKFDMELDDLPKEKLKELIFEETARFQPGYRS

Row | SMILES | IC50 (Colo205 cell line) [nM] | IC50 (human ERK2) [nM]
1 | Cc1cc(-c2n[nH]c3ccc(-c4ccn(Cc5ccc6cn[nH]c6c5)c(=O)c4)cc23)ccn1 [Example 94, 1-((1H-indazol-6-yl)methyl)-4-(3-(2-methylpyridin-4-yl)-1H-indazol-5-yl)pyridin-2(1H)-one] | 1000 to 5000 | < 10
2 | CC(C)Oc1ccc(-c2n[nH]c3ccc(-c4ccn(Cc5cc(F)cc(Br)c5)c(=O)c4)cc23)cn1 [Example 99, 1-(3-bromo-5-fluorobenzyl)-4-(3-(6-isopropoxypyridin-3-yl)-1H-indazol-5-yl)pyridin-2(1H)-one] | 1000 to 5000 | < 10
3 | CCOc1ccc(-c2n[nH]c3ccc(-c4ccn([C@H](CO)c5cc(F)cc(Br)c5)c(=O)c4)cc23)cn1 [Example 102, (S)-1-(1-(3-bromo-5-fluorophenyl)-2-hydroxyethyl)-4-(3-(6-ethoxypyridin-3-yl)-1H-indazol-5-yl)pyridin-2(1H)-one] | ≤ 500 | < 10
4 | COc1ccc(-c2n[nH]c3ccc(-c4ccn([C@H](CO)c5cc(F)cc(Br)c5)c(=O)c4)cc23)cn1 [Example 103, (S)-1-(1-(3-bromo-5-fluorophenyl)-2-hydroxyethyl)-4-(3-(6-methoxypyridin-3-yl)-1H-indazol-5-yl)pyridin-2(1H)-one] | ≤ 500 | < 10
5 | Cc1cc(-c2n[nH]c3ncc(-c4ccn(Cc5ccnc(C(F)(F)F)c5)c(=O)c4)cc23)ccn1 [Example 104, 4-(3-(2-methylpyridin-4-yl)-1H-pyrazolo[3,4-b]pyridin-5-yl)-1-((2-(trifluoromethyl)pyridin-4-yl)methyl)pyridin-2(1H)-one] | 500 to 1000 | 10 to 50
6 | Cc1cc(-c2n[nH]c3ncc(-c4ccn(C(C)c5cc(F)cc(Br)c5)c(=O)c4)cc23)ccn1 (centres unmarked) [Example 105, 1-(1-(3-bromo-5-fluorophenyl)ethyl)-4-(3-(2-methylpyridin-4-yl)-1H-pyrazolo[3,4-b]pyridin-5-yl)pyridin-2(1H)-one] | 500 to 1000 | < 10
7 | Cn1cc(-c2n[nH]c3ncc(-c4ccn([C@H](CO)c5cc(F)cc(Br)c5)c(=O)c4)cc23)cn1 [Example 106, (S)-1-(1-(3-bromo-5-fluorophenyl)-2-hydroxyethyl)-4-(3-(1-methyl-1H-pyrazol-4-yl)-1H-pyrazolo[3,4-b]pyridin-5-yl)pyridin-2(1H)-one] | 500 to 1000 | < 10
8 | CCOc1ccc(-c2n[nH]c3ncc(-c4ccn([C@H](CO)c5cc(F)cc(Br)c5)c(=O)c4)cc23)cn1 [Example 110, (S)-1-(1-(3-bromo-5-fluorophenyl)-2-hydroxyethyl)-4-(3-(6-ethoxypyridin-3-yl)-1H-pyrazolo[3,4-b]pyridin-5-yl)pyridin-2(1H)-one] | 500 to 1000 | < 10
9 | O=c1cc(-c2ccc3[nH]nc(-c4ccc(F)cc4)c3c2)ccn1[C@H](CO)c1cc(F)cc(Br)c1 [Example 111, (S)-1-(1-(3-bromo-5-fluorophenyl)-2-hydroxyethyl)-4-(3-(4-fluorophenyl)-1H-indazol-5-yl)pyridin-2(1H)-one] | ≤ 500 | < 10
10 | Cc1cc(-c2n[nH]c3ccc(-c4ccn(Cc5ccnc(C(F)(F)F)c5)c(=O)c4)nc23)ccn1 [Example 112, 4-(3-(2-methylpyridin-4-yl)-1H-pyrazolo[4,3-b]pyridin-5-yl)-1-((2-(trifluoromethyl)pyridin-4-yl)methyl)pyridin-2(1H)-one] | 1000 to 5000 | < 10
11 | O=c1cc(-c2ccc3[nH]nc(-c4ccc5ncsc5c4)c3c2)ccn1[C@H](CO)c1cc(F)cc(Br)c1 [Example 114, (S)-4-(3-(benzo[d]thiazol-6-yl)-1H-indazol-5-yl)-1-(1-(3-bromo-5-fluorophenyl)-2-hydroxyethyl)pyridin-2(1H)-one] | ≤ 500 | < 10

More lines, now with the values ahead:

Row | IC50 (Colo205 cell line) [nM] | IC50 (human ERK2) [nM] | SMILES
12 | ≤ 500 | < 10 | Cn1cc(-c2n[nH]c3ccc(-c4ccn(Cc5cccc(I)c5)c(=O)c4)cc23)cn1 [Example 93, 1-(3-iodobenzyl)-4-(3-(1-methyl-1H-pyrazol-4-yl)-1H-indazol-5-yl)pyridin-2(1H)-one]
13 | 1000 to 5000 | < 10 | Cn1cc(-c2n[nH]c3ccc(-c4ccn(Cc5ccnc(C(F)(F)F)c5)c(=O)c4)cc23)cn1 [Example 95, 4-(3-(1-methyl-1H-pyrazol-4-yl)-1H-indazol-5-yl)-1-((2-(trifluoromethyl)pyridin-4-yl)methyl)pyridin-2(1H)-one]
14 | 500 to 1000 | < 10 | CC(c1cc(F)cc(Br)c1)n1ccc(-c2ccc3[nH]nc(-c4cnn(C)c4)c3c2)cc1=O (centres unmarked) [Example 96, 1-(1-(3-bromo-5-fluorophenyl)ethyl)-4-(3-(1-methyl-1H-pyrazol-4-yl)-1H-indazol-5-yl)pyridin-2(1H)-one]
15 | 1000 to 5000 | 10 to 50 | CC(c1ccc(F)c(Cl)c1)n1ccc(-c2ccc3[nH]nc(-c4cnn(C)c4)c3c2)cc1=O (centres unmarked) [Example 97, 1-(1-(3-chloro-4-fluorophenyl)ethyl)-4-(3-(1-methyl-1H-pyrazol-4-yl)-1H-indazol-5-yl)pyridin-2(1H)-one]
16 | ≤ 500 | < 10 | CNCC(c1cccc(Cl)c1)n1ccc(-c2ccc3[nH]nc(-c4cnn(C)c4)c3c2)cc1=O (centres unmarked) [Example 98, 1-(1-(3-chlorophenyl)-2-(methylamino)ethyl)-4-(3-(1-methyl-1H-pyrazol-4-yl)-1H-indazol-5-yl)pyridin-2(1H)-one]
17 | 1000 to 5000 | 10 to 50 | CC(C)Oc1ccc(-c2n[nH]c3ccc(-c4ccn([C@H](CO)c5ccc(Cl)c(F)c5)c(=O)c4)cc23)cn1 [Example 100]
18 | ≤ 500 | < 10 | Cc1cc(-c2n[nH]c3ncc(-c4ccn([C@H](CO)c5ccc(F)c(Cl)c5)c(=O)c4)cc23)ccn1 [Example 101, (S)-1-(1-(3-chloro-4-fluorophenyl)-2-hydroxyethyl)-4-(3-(2-methylpyridin-4-yl)-1H-pyrazolo[3,4-b]pyridin-5-yl)pyridin-2(1H)-one]
19 | ≤ 500 | < 10 | CNCC(c1ccc(F)c(Cl)c1)n1ccc(-c2ccc3[nH]nc(-c4ccnc(C)c4)c3c2)cc1=O (centres unmarked) [Example 107, 1-(1-(3-chloro-4-fluorophenyl)-2-(methylamino)ethyl)-4-(3-(2-methylpyridin-4-yl)-1H-indazol-5-yl)pyridin-2(1H)-one]
20 | 1000 to 5000 | < 10 | Cn1cc(-c2n[nH]c3ncc(-c4ccn([C@H](CO)c5ccc(F)c(Cl)c5)c(=O)c4)cc23)cn1 [Example 108, (S)-1-(1-(3-chloro-4-fluorophenyl)-2-hydroxyethyl)-4-(3-(1-methyl-1H-pyrazol-4-yl)-1H-pyrazolo[3,4-b]pyridin-5-yl)pyridin-2(1H)-one]
21 | > 5000 | < 10 | O=c1cc(-c2ccc3[nH]nc(-c4cnn(CCO)c4)c3c2)ccn1[C@H](CO)c1ccc(F)c(Cl)c1 [Example 109, (S)-1-(1-(3-chloro-4-fluorophenyl)-2-hydroxyethyl)-4-(3-(1-(2-hydroxyethyl)-1H-pyrazol-4-yl)-1H-indazol-5-yl)pyridin-2(1H)-one]
22 | ≤ 500 | < 10 | Cn1cc2cc(-c3n[nH]c4ccc(-c5ccn([C@H](CO)c6cc(F)cc(Br)c6)c(=O)c5)cc34)ccc2n1 [Example 113, (S)-1-(1-(3-bromo-5-fluorophenyl)-2-hydroxyethyl)-4-(2′-methyl-1H,2′H-[3,5′-biindazol]-5-yl)pyridin-2(1H)-one]
